Assay results from US20140249135A1, “PIM KINASE INHIBITORS AND METHODS OF THEIR USE” (NOVARTIS AG, priority 2007, published 2014).
Where two headings read alike, the source gives them in different places.

How the values were obtained:
Format in all cases: biochemical
Pim1 kinase = Pim1 kinase (Homo sapiens, UniProt P11309); test: Pim1 ATP depletion assay;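 note: Luciferase-luciferin luminescence readout of residual ATP after PIM1 transfers phosphate to a peptide substrate, 40 µM ATP added, reaction run to roughly half ATP consumption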
Pim2 kinase = Pim2 kinase (Homo sapiens, UniProt Q9P1W9); test: Pim2 ATP depletion assay;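 note: Luciferase-based luminescent readout of ATP remaining after PIM2 phosphorylates a BAD peptide, final 5 nM enzyme, 4 µM ATP, 10 µM peptide, 2.5% DMSO, run to roughly half ATP consumption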
Pim3 kinase = Pim3 kinase (Homo sapiens, UniProt Q86V86); test: Pim3 ATP depletion assay
[1] = Pim1 ATP depletion assay, read-out: PIM1 IC50
[2] = Pim1 ATP depletion assay, read-out: IC50 (μM) PIM1

Measured: IC50

Chain of Pim2 kinase (Q9P1W9 whole entry): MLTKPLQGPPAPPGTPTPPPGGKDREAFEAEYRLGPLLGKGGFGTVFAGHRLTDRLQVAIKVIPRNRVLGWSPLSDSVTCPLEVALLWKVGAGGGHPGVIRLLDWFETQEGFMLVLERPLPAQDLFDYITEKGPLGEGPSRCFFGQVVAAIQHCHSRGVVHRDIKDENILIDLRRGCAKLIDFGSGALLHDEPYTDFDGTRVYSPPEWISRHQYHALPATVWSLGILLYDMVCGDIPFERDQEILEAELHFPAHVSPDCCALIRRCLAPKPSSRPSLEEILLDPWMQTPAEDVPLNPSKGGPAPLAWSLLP
Chain of Pim1 kinase (P11309 whole entry): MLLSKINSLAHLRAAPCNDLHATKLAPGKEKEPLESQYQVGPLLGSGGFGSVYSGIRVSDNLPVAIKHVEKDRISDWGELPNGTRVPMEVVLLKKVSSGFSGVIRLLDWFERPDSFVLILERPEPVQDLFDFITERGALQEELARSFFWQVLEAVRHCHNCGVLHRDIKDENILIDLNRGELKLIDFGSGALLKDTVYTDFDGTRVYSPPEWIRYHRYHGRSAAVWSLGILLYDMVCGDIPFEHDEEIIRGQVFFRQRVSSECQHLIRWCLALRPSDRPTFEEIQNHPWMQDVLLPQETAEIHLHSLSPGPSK

CC1(N)CCCN(c2ccncc2NC(=O)c2nc(-c3ccccc3F)ccc2N)C1 (stereo not drawn) [Example 674, 3-Amino-6-(2-fluoro-phenyl)-pyridine-2-carboxylic acid (3-amino-3-methyl-3,4,5,6-tetra-hydro-2H-[1,4′]bipyridinyl-3′-yl)-amide]
< 1 µM: Pim1 kinase; [1] | Pim2 kinase; read-out: PIM2 IC50 | Pim3 kinase; read-out: PIM3 IC50

COc1cccc(-c2nc(C(=O)Nc3cnccc3N3CCC[C@H](N)C3)c(N)cc2F)n1 [Example 512, 5-Amino-3-fluoro-6′-methoxy-[2,2′]bipyridinyl-6-carboxylic acid (3-amino-3,4,5,6-tetrahydro-2H-[1,4′]bipyridinyl-3′-yl)-amide]
< 1 µM: Pim1 kinase; [2] | Pim2 kinase; read-out: IC50 (μM) PIM2 | Pim3 kinase; read-out: IC50 (μM) PIM3

Nc1cnc(-c2ccccc2F)nc1C(=O)Nc1cnccc1N1CCC[C@H](N)C1 [Example 263, 5-Amino-2-(2-fluoro-phenyl)-pyrimidine-4-carboxylic acid (3-amino-3,4,5,6-tetrahydro-2H-[1,4′]bipyridinyl-3′-yl)-amide]
< 1 µM: Pim1 kinase; [2] | Pim2 kinase; read-out: IC50 (μM) PIM2 | Pim3 kinase; read-out: IC50 (μM) PIM3

Nc1ccc(-c2cncnc2)nc1C(=O)Nc1cnccc1N1CCC[C@H](N)C1 [Example 407, 3-amino-6-pyrimidin-5-yl-pyridine-2-carboxylic acid ((S)-3-amino-3,4,5,6-tetrahydro-2H-[1,4′]bipyridinyl-3′-yl)-amide]
< 1 µM: Pim1 kinase; [2] | Pim2 kinase; read-out: IC50 (μM) PIM2 | Pim3 kinase; read-out: IC50 (μM) PIM3

Cc1cnccc1-c1ccncc1NC(=O)c1nc(-c2ccccc2F)ccc1N [Example 613, 3-amino-6-(2-fluorophenyl)-N-(3′-methyl-4,4′-bipyridin-3-yl)pyridine-2-carboxamide]
< 1 µM: Pim1 kinase; [1] | Pim2 kinase; read-out: PIM2 IC50 | Pim3 kinase; read-out: PIM3 IC50

Cc1cc(-c2ccncc2NC(=O)c2nc(-c3ccccc3F)ccc2N)nc(N)n1 [Example 626, 3-amino-N-[4-(2-amino-6-methylpyrimidin-4-yl)-pyridin-3-yl]-6-(2-fluoro-phenyl)pyridine-2-carboxamide]
< 1 µM: Pim1 kinase; [1] | Pim2 kinase; read-out: PIM2 IC50 | Pim3 kinase; read-out: PIM3 IC50

Cc1cc(F)c(-c2ccc(N)c(C(=O)Nc3cnccc3N3CCCC(O)C3)n2)cc1Cl (stereo not drawn) [Example 654, 3-Amino-6-(5-chloro-2-fluoro-4-methyl-phenyl)-pyridine-2-carboxylic acid (3-hydroxy-3,4,5,6-tetrahydro-2H-[1,4′]bi-pyridinyl-3′-yl)-amide]
< 1 µM: Pim1 kinase; [1] | Pim2 kinase; read-out: PIM2 IC50 | Pim3 kinase; read-out: PIM3 IC50

Nc1cc(-c2ccncc2NC(=O)c2nc(C3CCCCC3)ccc2N)nc(C(F)(F)F)n1 [Example 633, 3-Amino-6-cyclohexyl-pyridine-2-carboxylic acid [4-(6-amino-2-trifluoro-methyl-pyrimidin-4-yl)-pyridin-3-yl]-amide]
< 1 µM: Pim1 kinase; [1] | Pim2 kinase; read-out: PIM2 IC50 | Pim3 kinase; read-out: PIM3 IC50

Nc1cc(-c2ccncc2NC(=O)c2nc(-c3ccccc3F)ccc2N)ccn1 [Example 605, 3-amino-N-(2′-amino-4,4′-bipyridin-3-yl)-6-(2-fluorophenyl)pyridine-2-carboxamide]
< 1 µM: Pim1 kinase; [1] | Pim2 kinase; read-out: PIM2 IC50 | Pim3 kinase; read-out: PIM3 IC50

Cc1ccc(F)c(-c2nc(C(=O)Nc3cnccc3N3CCC[C@H](N)C3)c(N)cc2F)n1 [Example 745, 5-Amino-3,3′-difluoro-6′-methyl-[2,2′]bipyridinyl-6-carboxylic acid (3-amino-3,4,5,6-tetrahydro-2H-[1,4′]bi-pyridinyl-3′-yl)-amide]
< 1 µM: Pim1 kinase; [1] | Pim2 kinase; read-out: PIM2 IC50 | Pim3 kinase; read-out: PIM3 IC50

CSc1nc(N)cc(-c2ccncc2NC(=O)c2nc(-c3c(F)ccc(OC(C)C)c3F)ccc2N)n1 [Example 536, 3-Amino-6-(2,6-difluoro-3-isopropoxy-phenyl)-pyridine-2-carboxylic acid [4-(6-amino-2-methylsulfanyl-pyrimidin-4-yl)-pyridin-3-yl]-amide]
< 1 µM: Pim1 kinase; [1] | Pim2 kinase; read-out: PIM2 IC50 | Pim3 kinase; read-out: PIM3 IC50

Cc1ccc(N)c(C(=O)Nc2cnccc2N2CCC[C@H](N)C2)n1 [Example 637, 3-amino-N-{4-[(3S)-3-aminopiperidin-1-yl]pyridin-3-yl}-6-methylpyridine-2-carboxamide]
< 1 µM: Pim1 kinase; [1] | Pim2 kinase; read-out: PIM2 IC50 | Pim3 kinase; read-out: PIM3 IC50

CCOc1ccc(F)c(-c2ccc(N)c(C(=O)Nc3cnccc3N3CCC[C@H](N)C3)n2)c1F [Example 492, 3-Amino-6-(3-ethoxy-2,6-difluoro-phenyl)-pyridine-2-carboxylic acid (3-amino-3,4,5,6-tetrahydro-2H-[1,4′]bipyridinyl-3′-yl)-amide]
< 1 µM: Pim1 kinase; [2] | Pim2 kinase; read-out: IC50 (μM) PIM2 | Pim3 kinase; read-out: IC50 (μM) PIM3

Cc1nc(N)cc(-c2ccncc2NC(=O)c2nc(-c3ccc(C(F)(F)F)cc3F)ccc2N)n1 [Example 557, 3-Amino-6-(2-fluoro-4-trifluoromethyl-phenyl)-pyridine-2-carboxylic acid [4-(6-amino-2-methyl-pyrimidin-4-yl)-pyridin-3-yl]-amide]
< 1 µM: Pim1 kinase; [1] | Pim2 kinase; read-out: PIM2 IC50 | Pim3 kinase; read-out: PIM3 IC50

CC(C)NC(=O)c1ccc(F)c(-c2ccc(N)c(C(=O)Nc3cnccc3N3C[C@@H](N)C[C@H](O)C3)n2)c1 [Example 296, 3-Amino-6-(2-fluoro-5-isopropylcarbamoyl-phenyl)-pyridine-2-carboxylic acid (3-amino-5-hydroxy-3,4,5,6-tetra-hydro-2H-[1,4′]bipyridinyl-3′-yl)-amide]
< 1 µM: Pim1 kinase; [2] | Pim2 kinase; read-out: IC50 (μM) PIM2 | Pim3 kinase; read-out: IC50 (μM) PIM3

Cc1ccnc(-c2ccc(N)c(C(=O)Nc3cnccc3N3CCC[C@H](N)C3)n2)c1F [Example 707, 5-Amino-3′-fluoro-4′-methyl-[2,2′]bipyridinyl-6-carboxylic acid (3-amino-3,4,5,6-tetra-hydro-2H-[1,4′]bipyridinyl-3′-yl)-amide]
< 1 µM: Pim1 kinase; [1] | Pim2 kinase; read-out: PIM2 IC50 | Pim3 kinase; read-out: PIM3 IC50

Nc1ccc(-c2c(F)cccc2F)nc1C(=O)Nc1cnccc1N1CC(N)CC(C(F)(F)F)C1 (stereo not drawn) [Example 282, 3-Amino-6-(2,6-difluoro-phenyl)-pyridine-2-carboxylic acid (3-amino-5-trifluoromethyl-3,4,5,6-tetrahydro-2H-[1,4′]bi-pyridinyl-3′-yl)-amide]
< 1 µM: Pim1 kinase; [2] | Pim2 kinase; read-out: IC50 (μM) PIM2 | Pim3 kinase; read-out: IC50 (μM) PIM3

Nc1ccc(-c2c(F)cccc2F)nc1C(=O)Nc1cnccc1N1CC[C@@H](O)[C@@H](N)C1 [Example 752, 3-Amino-6-(2,6-difluoro-phenyl)-pyridine-2-carboxylic acid (3-amino-4-hydroxy-3,4,5,6-tetra-hydro-2H-[1,4′]bipyridinyl-3′-yl)-amide]
< 1 µM: Pim1 kinase | Pim2 kinase; read-out: PIM2 IC50 | Pim3 kinase; read-out: PIM3 IC50

Nc1cnc(-c2cccc(F)c2F)nc1C(=O)Nc1cnccc1N1CCC[C@H](N)C1 [Example 546, 5-Amino-2-(2,3-difluoro-phenyl)-pyrimidine-4-carboxylic acid (3-amino-3,4,5,6-tetrahydro-2H-[1,4′]bipyridinyl-3′-yl)-amide]
< 1 µM: Pim1 kinase; [1] | Pim2 kinase; read-out: PIM2 IC50 | Pim3 kinase; read-out: PIM3 IC50

Cc1cc(-c2ccncc2NC(=O)c2nc(-c3ccccc3)ncc2N)cc(N)n1 [Example 269, 5-Amino-2-phenyl-pyrimidine-4-carboxylic acid (6′-amino-2′-methyl-[4,4′]bipyridinyl-3-yl)-amide]
< 1 µM: Pim1 kinase; [2] | Pim2 kinase; read-out: IC50 (μM) PIM2 | Pim3 kinase; read-out: IC50 (μM) PIM3

Cc1ccc(F)c(-c2ccc(N)c(C(=O)Nc3cnccc3N3CCC[C@H](N)C3)n2)n1 [Example 709, 5-Amino-3′-fluoro-6′-methyl-[2,2′]bipyridinyl-6-carboxylic acid (3-amino-3,4,5,6-tetra-hydro-2H-[1,4′]bipyridinyl-3′-yl)-amide]
< 1 µM: Pim1 kinase; [1] | Pim2 kinase; read-out: PIM2 IC50 | Pim3 kinase; read-out: PIM3 IC50

Nc1ccc(-c2ncccc2F)nc1C(=O)Nc1cnccc1N1CCC(N)C(O)C1 (stereo not drawn) [Example 734, 5-Amino-3′-fluoro-[2,2′]bi-pyridinyl-6-carboxylic acid (4-amino-3-hydroxy-3,4,5,6-tetra-hydro-2H-[1,4′]bipyridinyl-3′-yl)-amide]
< 1 µM: Pim1 kinase; [1] | Pim2 kinase; read-out: PIM2 IC50 | Pim3 kinase; read-out: PIM3 IC50

Nc1ccc(-c2c(F)cccc2F)nc1C(=O)Nc1cnccc1-c1cccnc1N [Example 630, 3-amino-N-(2-amino-3,4′-bipyridin-3′-yl)-6-(2,6-difluorophenyl)pyridine-2-carboxamide]
< 1 µM: Pim1 kinase; [1] | Pim2 kinase; read-out: PIM2 IC50 | Pim3 kinase; read-out: PIM3 IC50

Cc1ccnc(-c2nc(C(=O)Nc3cnccc3N3CCC[C@H](N)C3)c(N)cc2F)c1F [Example 737, 5-Amino-3,3′-difluoro-4′-methyl-[2,2′]bipyridinyl-6-carboxylic acid (3-amino-3,4,5,6-tetrahydro-2H-[1,4′]bi-pyridinyl-3′-yl)-amide]
< 1 µM: Pim1 kinase; [1] | Pim2 kinase; read-out: PIM2 IC50 | Pim3 kinase; read-out: PIM3 IC50

Nc1ccc(C2CCCCC2)nc1C(=O)Nc1cnccc1N1CC(N)CC(C(F)(F)F)C1 (stereo not drawn) [Example 279, 3-Amino-6-cyclohexyl-pyridine-2-carboxylic acid (3-amino-5-trifluoromethyl-3,4,5,6-tetra-hydro-2H-[1,4′]bipyridinyl-3′-yl)-amide]
< 1 µM: Pim1 kinase; [2] | Pim2 kinase; read-out: IC50 (μM) PIM2 | Pim3 kinase; read-out: IC50 (μM) PIM3

CCCOc1ccc(F)c(-c2ccc(N)c(C(=O)Nc3cnccc3-c3cc(N)nc(C)n3)n2)c1F [Example 533, 3-Amino-6-(2,6-difluoro-3-propoxy-phenyl)-pyridine-2-carboxylic acid [4-(6-amino-2-methyl-pyrimidin-4-yl)-pyridin-3-yl]-amide]
< 1 µM: Pim1 kinase; [2] | Pim2 kinase; read-out: IC50 (μM) PIM2 | Pim3 kinase; read-out: IC50 (μM) PIM3

COc1cc(F)c(-c2ccc(N)c(C(=O)Nc3cnccc3N3CCC[C@H](N)C3)n2)cc1F [Example 477, 3-Amino-6-(2,5-difluoro-4-methoxy-phenyl)-pyridine-2-carboxylic acid (3-amino-3,4,5,6-tetrahydro-2H-[1,4′]bipyridinyl-3′-yl)-amide]
< 1 µM: Pim1 kinase; [2] | Pim2 kinase; read-out: IC50 (μM) PIM2 | Pim3 kinase; read-out: IC50 (μM) PIM3
